Test results from paper PMC8269107, “Lipidation of Temporin-1CEb Derivatives as a Tool for Activity Improvement, Pros and Cons of the Approach” (International Journal of Molecular Sciences, 2021).
In brackets after ≈: the same amount, converted by molar mass. Where a SMILES comes first, the peptide text is derived from it. The star is where a group is joined. Palmitoyl = CCCCCCCCCCCCCCCC(=O)*; Pentanoyl = CCCCC(=O)*

Columns and labels:
C.krusei CCM 8271 = assay: MIC, broth microdilution; assay type: cell-based, Candida krusei; conditions: C.krusei CCM 8271, 24 h
Text: Escherichia coli (PCM 2057 = ATCC 25922), Staphylococcus aureus (PCM 2054 = ATCC 25923), Staphylococcus epidermidis (PCM 2118 = ATCC 14990), Bacillus subtilis (PCM 2224 = ATCC 9799), Bacillus cereus (PCM 482 = ATCC 10702) and Pseudomonas aeruginosa (PCM 499 = ATCC 10145) were obtained from the Polish Collection of Microorganisms. Fungi strains Candida albicans (CCM 8186 = CNTC 49/64), Candida glabrata (CCM 8270 = ATCC 90030), Candida parapsilosis (CCM 8260 = ATCC 22019) and Candida krusei (CCM 8271 = ATCC 6258) were acquired from the Czech Collection of Microorganisms. S. aureus USA300 (wild type strain), the reference strain of Klebsiella pneumoniae (ATCC 13883) and clinical isolates of Pseudomonas aeruginosa (PA1, PA2) collected from nonrelated patients admitted to the Stefan Zeromski Specialist Municipal Hospital in Krakow (Poland) were kindly provided by the research group of the Department of Microbiology, Faculty of Biochemistry, Biophysics and Biotechnology, Jagiellonian University, Krakow, Poland.
Luria-Bertani broth (LB) and Sabouraud Dextrose broth (SB) (Biocorp, Poland) were used for cultivation of bacteria and fungi strains, respectively. The antimicrobial activity of the peptides were analyzed through determination of MIC (minimal inhibitory concentration) parameters according to Clinical and Laboratory Standards (CLSI) guidelines developed for aerobic bacteria and yeasts, respectively. Mueller-Hinton broth (MHB) was used as the working medium for all bacterial strains, while in the case of fungi, RPMI-1640 (with L-glutamine, without sodium bicarbonate) growth medium buffered with MOPS (morpholinepropanesulfonic acid) and supplemented with 2% glucose was used. Inoculum was prepared from freshly grown cultures of microorganisms at their exponential phase of growth. […] Plates were then incubated for 24 h at 37 °C in the case of bacteria and at 35 °C in the case of fungi. After that time, absorbance was read at 590 nm with a Perkin Elmer plate reader. Cultures without peptide were treated as positive control, while uninoculated media were defined as negative control. All measurements were run at least in triplicate.

keratinocytes (HaCaT) = assay: Cytotoxicity, MTT assay; assay type: cell-based, human; conditions: MTT, 24 h; for IC50: Keratinocytes (HaCaT)
Method: (§1) Human dermal fibroblasts were obtained as previously reported from biopsies of healthy human skin of three donors undergoing a surgery. All procedures were approved by the Ethics Committee of Medicinal University of Gdansk (NKEBN/483/2011 and NKBBN/745/2019-2020). Immortalized human HaCaT keratinocytes (DKFZ Heidelberg, Germany) were obtained commercially.
(§2) Both types of cell lines were grown in Dulbecco′s Modified Eagle′s Medium (DMEM) (Sigma-Aldrich, Germany), containing […] of glucose, […] of L- glutamine, sodium pyruvate and sodium bicarbonate. Additionally, the medium was supplemented with 10% FCS (fetal calf serum, Sigma-Aldrich, Germany), 100 U/mL of penicillin and 100 μg/mL of streptomycin (Sigma-Aldrich, Germany). The cells were grown in standard culture dishes (BD, USA) in a humidified atmosphere with 5% CO2 at […], and the medium was changed every 2 days.
(§3) The fibroblasts and keratinocytes were seeded at density of 5500 cells per well into 96-well plates suspended in a medium supplemented with 10% FCS. After 24 h from seeding, the media were exchanged with serum- and antibiotic-free DMEM and tested peptides, dissolved in sterile water, which were added, yielding a final concentration ranging from 1 to 50 μg/mL. The cells were then incubated for the next 24 h. At the end of the experiment, the cells were treated with 20 μL of MTT (5 mg/mL in PBS). After 3 h of incubation in the presence of MTT dye, the DMEM medium was discarded and replaced with 6 mM HCl in isopropanol. When the purple crystals of formazan were fully solubilized, absorbance at 570 nm was read.

primary fibroblasts = assay: Cytotoxicity, MTT assay; assay type: cell-based, human; conditions: MTT, 24 h; for IC50: primary Fibroblasts
Method: as §1, §2, §3

[1] = test system: S. aureus (PCM 2054) biofilm; assay: Biofilm eradication assay, pre-formed 24 h old biofilm (MTT); assay type: cell-based, Staphylococcus aureus; conditions: S. aureus pre-formed 24 h old biofilm, 24 h treatment
Method: Biofilm eradication activity of the synthesized compounds was analyzed against 24 h old biofilms of S. aureus and C. albicans. In the case of bacteria, an overnight culture of S. aureus in Tryptic Soy Broth (TSB) supplemented with 2% glucose (TSB/+G) was used to prepare inoculum for the experiments. Briefly, 5 mL of 24 h culture was centrifuged at 5000× g, washed with sterile PBS and suspended in a fresh TSB/+G. The bacterial suspension was then diluted in a fresh growth medium to obtain the final concentration of colonies of about 1 × 10^7 cells per ml. Further, 200 μL of the inoculum was transferred to each well of 96-well sterile polystyrene flat-bottomed plate, and bacteria were then incubated for the next 24 h without shaking at 37 °C.
(§4) After that, each well of the plates containing bacterial or fungi biofilm was washed three times with PBS in order to remove all non-adherent cells. Then, peptide solutions of 200 µL ranging from 50 to 0,39 µg/mL prepared in TSB +/G in the case of experiments on S. aureus biofilm, and (RPMI-1640/+G) in the case of C. alibcans, were prepared and transferred into the microtiter plates. After the addition of the peptides, the experiments were continued for the next 24 h.
(§5) The reduction in biofilm viability was analyzed by means of MTT assay. Briefly, 20 μL of MTT solution (5 mg/mL in PBS) was added to prewashed wells with exchanged medium (180 μL of fresh medium) wells containing bacterial/yeast biofilms. Plates were then incubated in the dark for the next 3 h at 37 °C. After that time, the medium was replaced with 6 mM HCl in isopropanol and, when the reduced MTT was fully dissolved, the plates were read at 570 nm. Activity against fully developed 24 h old biofilm was described as biofilm eradication concentration (BEC50 expressed in µg/mL), which corresponded to the concentration of the compound able to reduce 50% of biofilm viability compared with the growth control.

[2] = test system: C. albicans (CCM 8186) biofilm; assay: as above; assay type: cell-based, Candida albicans; conditions: C. albicans pre-formed 24 h old biofilm, 24 h treatment
Method: In the case of yeasts, the overnight culture of C. albicans in Sabouraud dextrose broth (SB) was used for inoculum preparation. Similar to above, 5 mL of 24 h culture was centrifuged, washed with PBS and then suspended in sterile RPMI-1640 medium (with L-glutamine, without sodium bicarbonate) supplemented with 2% glucose (RPMI-1640/+G) yielding the amount of about 1 × 10^7 cells per ml. Subsequently, 200 µL of yeast suspension was transferred into each well of a microtiter plate, and it was incubated stationary for the next 24 h at 35 °C.
as §4, §5

Structure (SMILES)	MIC100 (C.krusei CCM 8271)	IC50 (keratinocytes (HaCaT))	effect on cell viability (in words) (keratinocytes (HaCaT); keratinocytes, 1 to 50 µg/mL)	effect on cell viability (in words) (primary fibroblasts; fibroblasts, 1 to 50 µg/mL)	IC50 (primary fibroblasts)	BEC50 [1]	BEC50 [2]
CCCCC(=O)N[C@H](C(=O)N[C@@H](CCCCN)C(=O)N[C@@H](CCCCN)C(=O)N[C@H](C(=O)N[C@@H](CC(C)C)C(=O)N[C@@H](CO)C(=O)N[C@@H](CCCCN)C(=O)N[C@H](C(=O)N[C@@H](CCCCN)C(=O)N[C@@H](CCCCN)C(=O)N[C@@H](CC(C)C)C(=O)N[C@@H](CC(C)C)C(N)=O)[C@@H](C)CC)[C@@H](C)CC)[C@@H](C)CC [Compound C5-DK5] (Pentanoyl-IKKILSKIKKLL-NH2)	25 µg/mL (≈ 16.6 µM)	35 µg/mL (≈ 23.2 µM)	moderately toxic	moderately toxic	20 µg/mL (≈ 13.3 µM)	>50 µg/mL	12.5 µg/mL
CCCCCCCCCCCCCCCC(=O)N[C@H](C(=O)N[C@@H](CCCCN)C(=O)N[C@@H](CCCCN)C(=O)N[C@H](C(=O)N[C@@H](CC(C)C)C(=O)N[C@@H](CO)C(=O)N[C@@H](CCCCN)C(=O)N[C@H](C(=O)N[C@@H](CCCCN)C(=O)N[C@@H](CCCCN)C(=O)N[C@@H](CC(C)C)C(=O)N[C@@H](CC(C)C)C(N)=O)[C@@H](C)CC)[C@@H](C)CC)[C@@H](C)CC [Compound C16-DK5] (Palmitoyl-IKKILSKIKKLL-NH2)	6.25 µg/mL (≈ 3.76 µM)	5 µg/mL (≈ 3.01 µM)	–	–	7 µg/mL (≈ 4.21 µM)	6.25 µg/mL	12.5 µg/mL
